One compound from article PMC4503431, “Impaired Itching Perception in Murine Models of Cholestasis Is Supported by Dysregulation of GPBAR1 Signaling” (PLoS ONE, 2015) can be followed below.

Experiment [1] deals with T1, farnesoid X receptor (FXR) (Homo sapiens, UniProt Q96RI1).
T1 construct: gene NR1H4; pSG5-FXR; with RXR (pSG5-RXR cotransfected)
T1 sequence (Q96RI1 1-486): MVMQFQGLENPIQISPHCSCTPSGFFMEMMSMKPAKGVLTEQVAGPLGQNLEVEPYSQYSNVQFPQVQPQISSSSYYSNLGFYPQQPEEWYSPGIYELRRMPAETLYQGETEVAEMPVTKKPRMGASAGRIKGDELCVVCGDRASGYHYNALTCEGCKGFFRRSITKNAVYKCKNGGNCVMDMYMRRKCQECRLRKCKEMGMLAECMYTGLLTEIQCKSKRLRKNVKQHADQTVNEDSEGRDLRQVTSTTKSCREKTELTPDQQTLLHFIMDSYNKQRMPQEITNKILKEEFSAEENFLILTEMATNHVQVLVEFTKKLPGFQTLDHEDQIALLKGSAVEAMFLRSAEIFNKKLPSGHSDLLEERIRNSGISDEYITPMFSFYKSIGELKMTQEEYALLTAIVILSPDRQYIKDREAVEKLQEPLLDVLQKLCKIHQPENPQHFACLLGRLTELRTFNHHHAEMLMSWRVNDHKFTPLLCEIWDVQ
T1 sequence (P19793 1-462 partner): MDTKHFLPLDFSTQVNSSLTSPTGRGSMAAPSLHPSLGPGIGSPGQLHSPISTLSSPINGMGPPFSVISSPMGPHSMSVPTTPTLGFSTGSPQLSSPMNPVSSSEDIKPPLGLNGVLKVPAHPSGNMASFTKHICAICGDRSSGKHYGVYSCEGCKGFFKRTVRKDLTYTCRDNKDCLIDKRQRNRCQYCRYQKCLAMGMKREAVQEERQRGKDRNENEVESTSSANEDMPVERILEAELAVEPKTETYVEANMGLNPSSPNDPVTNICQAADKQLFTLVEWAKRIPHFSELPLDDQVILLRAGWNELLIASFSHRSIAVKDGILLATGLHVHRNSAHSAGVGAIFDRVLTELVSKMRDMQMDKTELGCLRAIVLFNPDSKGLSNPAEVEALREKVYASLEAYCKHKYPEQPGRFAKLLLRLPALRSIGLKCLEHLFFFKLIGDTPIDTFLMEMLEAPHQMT
As to the kind of experiment: FXRE (hsp27 IR1) luciferase transactivation in HepG2 cells transfected with FXR and RXR. The format is cell-based.

A further experiment deals with T2, GPBAR1 (TGR5) (Homo sapiens, UniProt Q8TDU6).
T2 construct: pCMVSPORT6-human GPBAR1
T2 sequence (Q8TDU6 1-330): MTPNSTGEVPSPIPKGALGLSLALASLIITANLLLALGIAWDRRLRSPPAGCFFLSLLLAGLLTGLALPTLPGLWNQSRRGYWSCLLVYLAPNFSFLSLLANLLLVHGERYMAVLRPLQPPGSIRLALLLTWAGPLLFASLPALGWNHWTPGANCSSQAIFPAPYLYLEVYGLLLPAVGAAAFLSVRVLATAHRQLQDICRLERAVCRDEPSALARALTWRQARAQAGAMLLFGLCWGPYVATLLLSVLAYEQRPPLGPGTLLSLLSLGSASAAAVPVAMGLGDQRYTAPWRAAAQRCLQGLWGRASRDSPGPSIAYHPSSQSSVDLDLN
As to the kind of experiment: CRE-luciferase transactivation in HEK293T cells transfected with human GPBAR1. It is filed as cell-based.

In general, EC50 refers to the concentration that produces a half-maximal response. A high value points to weaker potency.

On to `CC[C@H]1[C@@H](O)[C@@H]2[C@H](CC[C@]3(C)[C@@H]([C@H](C)CCO)CC[C@@H]23)[C@@]2(C)CC[C@@H](O)C[C@@H]12` [BAR502, 6α-ethyl-3α, 7α-dihydroxy-24-nor-5β-cholan-23-ol], for which the EC50 was found to be 2000 ± 200 nM in experiment [1] and 400 ± 100 nM on GPBAR1 (TGR5).
